Our source for the IC50 values is ChEMBL document CHEMBL1146786, “Lingshuiol, a novel polyhydroxyl compound with strongly cytotoxic activity from the marine dinoflagellate Amphidinium sp” (Bioorg Med Chem Lett, 2004).

For one assay, the system named is A549. Put plainly: In vitro cytotoxic activity of compound against A-549 cell line. The class given is functional, cell-based. To be noted: Homo sapiens.
Another assay relates to HL-60. As to the kind of experiment: In vitro cytotoxic activity of compound against HL-60 cell line. The class given is functional, cell-based. The conditions noted are these: Homo sapiens.

In general, IC50 refers to the concentration at which inhibition is half-maximal. Low readings indicate greater potency, high ones weaker potency. Consider `C=CCCCCCCCCCC/C=C/C(O)C(O)C1OC(C(O)C(O)C(=C)CCC(O)C2CC(O)C(O)C(C(O)C(O)/C=C(\C)CC(O)CC(O)C(O)C(O)C(O)C(O)C(C)CC(O)C(O)CC(C)/C=C/CCC(O)CC(=O)/C=C/CCCCC(O)CO)O2)CC(O)C1O` (configuration not stated) [LINGSHUIOL], for which the IC50 was determined as 0.21 µM in the assay on A549 and 0.23 µM in the assay with HL-60.
